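Dose response: 5 concentrations. Exposure: 48 h. Format: 96-well plates. Endpoint: linear interpolation; highest concentration if not reached. GI50 is the concentration that inhibits growth by half. The concentration for full growth arrest is given as TGI.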
Legend:
Assay in all cases: NCI anticancer screen, dose series, 48 h
[1] = system: OVCAR-8 ovarian
[2] = system: K-562 leukemia
[3] = system: NCI-H226 lung
[4] = system: HCT-116 colon
[5] = system: SN12C renal
[6] = system: NCI/ADR-RES ovarian
[7] = system: HOP-62 NSCLC
[8] = system: HS 578T breast
[9] = system: M14 melanoma
[10] = system: KM12 colon
[11] = system: NCI-H23 lung
[12] = system: SF-268 CNS
[13] = system: OVCAR-4 ovarian
[14] = system: MDA-MB-435
[15] = system: NCI-H522 lung
[16] = system: EKVX NSCLC
[17] = system: SK-MEL-5 melanoma
[18] = system: SF-295 CNS
[19] = system: MCF7 breast
[20] = system: SK-MEL-28 melanoma
[21] = system: A549 NSCLC
[22] = system: SNB-75 CNS
[23] = system: HCC-2998 colon
[24] = system: BT-549 breast
[25] = system: DU-145 prostate
[26] = system: SF-539 CNS
[27] = system: CAKI-1 renal
[28] = system: T-47D breast
[29] = system: UO-31 renal
[30] = system: HCT-15 colon
[31] = system: MOLT-4 leukemia
[32] = system: HT29 colon
[33] = system: UACC-62 melanoma
[34] = system: U251 CNS
[35] = system: COLO 205 colon
[36] = system: OVCAR-5 ovarian
[37] = system: OVCAR-3 ovarian
[38] = system: MDA-MB-231 breast
[39] = system: A498 renal
[40] = system: PC-3 prostate
[41] = system: SNB-19 CNS
[42] = system: TK-10 renal
[43] = system: NCI-H460 lung
[44] = system: LOX IMVI melanoma
[45] = system: ACHN renal
[46] = system: UACC-257 melanoma
[47] = system: SK-MEL-2 melanoma
[48] = system: SK-OV-3 ovarian
[49] = system: MALME-3M melanoma
[50] = system: SW-620 colon
[51] = system: IGROV1 ovarian
[52] = system: 786-0 renal

`CNC(=O)C(CCc1ccccc1)NC(=O)C(CC(=O)NO)CC(C)C` (centres undefined) showed a GI50 [1] of over 25 µM, a TGI [1] of over 25 µM and a GI50 [2] of 19.6 µM. The TGI [2] was over 25 µM, the GI50 [3] was over 25 µM and the TGI [3] was over 25 µM. It also gave a GI50 [4] of over 25 µM, a TGI [4] of over 25 µM and a GI50 [5] of over 25 µM. It also gave a TGI [5] of over 25 µM, a GI50 [6] of over 25 µM and a TGI [6] of over 25 µM. The GI50 [7] was over 25 µM, the TGI [7] was over 25 µM and the GI50 [8] was over 25 µM. The TGI [8] was over 25 µM, the GI50 [9] was over 25 µM and the TGI [9] was over 25 µM. It also gave a GI50 [10] of over 25 µM, a TGI [10] of over 25 µM and a GI50 [11] of over 25 µM. For the same compound, the TGI [11] was over 25 µM, the GI50 [12] was over 25 µM and the TGI [12] was over 25 µM. The GI50 [13] was over 25 µM, the TGI [13] was over 25 µM and the GI50 [14] was over 25 µM. For the same compound, the TGI [14] was over 25 µM, the GI50 [15] was over 25 µM and the TGI [15] was over 25 µM. For the same compound, the GI50 [16] was 8.31 µM, the TGI [16] was over 25 µM and the GI50 [17] was over 25 µM. For the same compound, the TGI [17] was over 25 µM, the GI50 [18] was over 25 µM and the TGI [18] was over 25 µM. It also gave a GI50 [19] of over 25 µM, a TGI [19] of over 25 µM and a GI50 [20] of over 25 µM. For the same compound, the TGI [20] was over 25 µM, the GI50 [21] was over 25 µM and the TGI [21] was over 25 µM. For the same compound, the GI50 [22] was over 25 µM, the TGI [22] was over 25 µM and the GI50 [23] was over 25 µM. It also gave a TGI [23] of over 25 µM, a GI50 [24] of over 25 µM and a TGI [24] of over 25 µM. It also gave a GI50 [25] of over 25 µM, a TGI [25] of over 25 µM and a GI50 [26] of over 25 µM. For the same compound, the TGI [26] was over 25 µM, the GI50 [27] was over 25 µM and the TGI [27] was over 25 µM. The GI50 [28] was over 25 µM, the TGI [28] was over 25 µM and the GI50 [29] was over 25 µM. The TGI [29] was over 25 µM, the GI50 [30] was over 25 µM and the TGI [30] was over 25 µM. For the same compound, the GI50 [31] was over 25 µM, the TGI [31] was over 25 µM and the GI50 [32] was over 25 µM. For the same compound, the TGI [32] was over 25 µM, the GI50 [33] was over 25 µM and the TGI [33] was over 25 µM. For the same compound, the GI50 [34] was over 25 µM, the TGI [34] was over 25 µM and the GI50 [35] was over 25 µM. For the same compound, the TGI [35] was over 25 µM, the GI50 [36] was over 25 µM and the TGI [36] was over 25 µM. It also gave a GI50 [37] of over 25 µM, a TGI [37] of over 25 µM and a GI50 [38] of over 25 µM. The TGI [38] was over 25 µM, the GI50 [39] was over 25 µM and the TGI [39] was over 25 µM. The GI50 [40] was over 25 µM, the TGI [40] was over 25 µM and the GI50 [41] was over 25 µM. The TGI [41] was over 25 µM, the GI50 [42] was over 25 µM and the TGI [42] was over 25 µM. It also gave a GI50 [43] of over 25 µM, a TGI [43] of over 25 µM and a GI50 [44] of over 25 µM. For the same compound, the TGI [44] was over 25 µM, the GI50 [45] was over 25 µM and the TGI [45] was over 25 µM. It also gave a GI50 [46] of over 25 µM, a TGI [46] of over 25 µM and a GI50 [47] of over 25 µM. For the same compound, the TGI [47] was over 25 µM, the GI50 [48] was over 25 µM and the TGI [48] was over 25 µM. For the same compound, the GI50 [49] was over 25 µM, the TGI [49] was over 25 µM and the GI50 [50] was over 25 µM. The TGI [50] was over 25 µM, the GI50 [51] was over 25 µM and the TGI [51] was over 25 µM. For the same compound, the GI50 [52] was over 25 µM and the TGI [52] was over 25 µM.
